Measurements reported in patent US8789785B2, “Device for micronization of solid materials and its use” (Lambano Trading Limited, priority 2010, dated 2014).

Assay: bioavailability of the substance micronized with the device
Type: in vivo
Details: after micronization with the device from the present invention
From the text: As an example of pharmaceutically active substance herein is mentioned anti-inflammatory substance alclometasone-17,21-dipropionate which was successfully micronized with the device from the present invention yielding the product of increased bioavailability.

## CCC(=O)OCC(=O)[C@@]1(OC(=O)CC)[C@H](C)C[C@H]2[C@H]3[C@H]([C@@H](O)C[C@@]21C)[C@@]1(C)C=CC(=O)C=C1C[C@H]3Cl [alclometasone-17,21-dipropionate]
  bioavailability of the micronized product: increased
